According to US20120322060A1, “DIAGNOSIS AND MONITORING TREATMENT OF PSYCHIATRIC DISEASES WITH SPADIN AND RELATED METHODS” (CENTRE NATIONAL DE LE RECHERCHE SCIENTIFIQUE - CNRS -, priority 2011, published 2012):
Entries after “also recorded” stand apart in the source; their conditions may differ. No end group written: not given here.

Columns and labels:
mice [1] = assay: Staircase test; assay type: in vivo, mouse; details: spadin i.p. 10^-5 M, diazepam i.p. 0.5 mg/kg
Protocol: The apparatus comprised an enclosed staircase consisted of five identical steps (2.5 cm in height×11 cm in width×7.5 cm in length), each made of black plastic. The height of the walls was constant (12.5 cm above the stairs) along the entire length of the staircase. Each mouse was placed individually on the floor of the staircase with its back to the staircase. A step was considered climbed only if the mouse placed all four paws on it. Rearing was recorded when the mouse rose on its hind legs either on the step or against the wall. The number of steps ascended and the number of rearings made in a 3-min period were recorded. Results were expressed as ratio of rearing/step numbers.

TREK-1 [2] = biological target: T1, TREK-1 (Mus musculus, UniProt P97438); assay: Whole-cell patch-clamp of native currents on β-TC3 cell line; assay type: cell-based; set-up: expressed in transfected cells; host or cells: COS-7 (DEAE-dextran transfection); details: 1 μM spadin; read-out: inhibition of endogenous TREK-1
T1 sequence (P97438 1-426): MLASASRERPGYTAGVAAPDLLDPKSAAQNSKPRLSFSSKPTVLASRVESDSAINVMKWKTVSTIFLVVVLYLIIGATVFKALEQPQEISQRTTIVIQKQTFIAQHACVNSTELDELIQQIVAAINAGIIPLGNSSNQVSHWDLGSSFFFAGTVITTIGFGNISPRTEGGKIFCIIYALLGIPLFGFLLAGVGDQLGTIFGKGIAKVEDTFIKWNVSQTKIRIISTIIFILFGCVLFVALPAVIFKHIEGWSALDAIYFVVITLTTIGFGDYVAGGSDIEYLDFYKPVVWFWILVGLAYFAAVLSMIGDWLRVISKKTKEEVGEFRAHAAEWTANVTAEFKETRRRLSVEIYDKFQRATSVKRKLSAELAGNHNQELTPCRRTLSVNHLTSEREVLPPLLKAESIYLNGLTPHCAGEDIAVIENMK
Protocol: Native currents elicited by these cells were recorded in the whole-cell configuration of the patch-clamp technique (as described for COS-7 cells) and in the presence of K^+ blockers.

mice [3] = assay: Conditioned Suppression of Motility test (CMST); assay type: in vivo, mouse
Protocol: Mice were placed in a rectangular cage (20×20×27 cm) with a metallic grid floor, located in a sound-proof room illuminated by a 75 W bulb. There were 12 squares drawn on the floor for counting animal displacements. On the first day, the mouse was left in the test cage for 6 min and received 30 electric footshocks of 1.8 mA during 200 ms (one shock every 12 s.). On the second day, the mouse was again placed in the same cage without receiving electric footshocks (conditioned suppression group). Motility changes were observed by counting the number of squares crossed plus the number of climbing in 6 min. Each control group was treated exactly by the same way, except for the absence of the electric foot-shock. In this test, the mice learned to associate a conditioned stimulus (CS: test chamber) with an unconditioned stimulus (US: footshocks). After the pairing of CS and US, a robust associative memory of the CS-US was formed such that the CS alone could elicit a fear response (behavioral immobility or freezing).

TREK-1 [4] = biological target: T1, TREK-1; assay: Association kinetics / internalization of 125I-spadin on COS-7 cells expressing TREK-1; assay type: cell-based; set-up: expressed in transfected cells; host or cells: COS-7 (DEAE-dextran transfection); details: 37° C.
Protocol: Cells, grown on 12 mm multiwell-dishes, were incubated with 0.2 nM ^125I-spadin for various times at 37° C. in an Earle's Tris-Hepes buffer (cell binding buffer). Incubations were terminated by washing cells twice with the binding buffer or with the same buffer containing 0.5 M NaCl, pH 4, for 2 min to remove non sequestrated radioactivity (acid-NaCl wash). Cells were harvested with 1 ml of 0.1 N NaOH and counted in a gamma-counter. Non specific binding was determined in the presence of 10 μM unlabeled spadin.

CREB = assay: pCREB immunostaining in hippocampal sections; assay type: in vivo, mouse; details: 4 days, i.p. 10^-5 M, hippocampal SGZ
Protocol: Free floating sections were permeabilized in 0.1% Triton/PBS for 10 min and blocked with 3% goat serum/PBS for 2 hours at room temperature followed by a single wash in PBS. Sections were then incubated with the monoclonal anti-pCREB antibody (1:300, Cell Signaling Technology) overnight at 4° C. After three washes in PBS, sections were then incubated in biotinylated horse anti-rabbit IgG (Jackson ImmunoResearch, diluted 1:15000) for 2 hours at room temperature. pCREB expression was visualized by 3.3′-diaminobenzidine (DAB) staining using the VectaStain ABC kit (Biovalley). All sections were washed and mounted with Entellan. For BrdU/pCREB immunofluorescence staining, free floating sections of mice injected with BrdU were incubated with the primary antibodies, anti-rabbit pCREB (1:500, Cell Signaling Technology) and anti-mouse BrdU (1:40, Becton-Dickinson). After three washesin PBS, sections were then incubated in anti-IgGAlexa 488- or 594-coupled antibodies (Molecular Probes) for 1 h at room temperature. After drying sections in the dark boxes for 2 hours, they were mounted with Vectashield (Vector laboratories). Confocal microscopy observations were performed with the Laser Scanning Confocal Microscope (TCS SP, Leica) equipped with a DMIRBE inverted microscope, using a Plan Apo 63x/1,4 NA oil immersion objective.

mice [5] = assay: Elevated plus-maze; assay type: in vivo, mouse; details: spadin i.p. 10^-5 M, diazepam i.p. 0.5 mg/kg
Excerpt: Elevated plus-maze. The apparatus consisted of two open and two enclosed arms of the same size (45×5 cm) with walls 15 cm high. The arms, constructed of black acrylic, radiate from a common central platform (5×5 cm) to form a plus sign. Open arms were arranged opposite to one another, as were closed arms. The maze was elevated to a height of 45 cm above floor level. Each mouse was placed in the central platform facing one of the open arms. The number of entries into the open and closed arms and the time spent on the open and closed arms were recorded during a 5 min test period. Time spent in the unprotected open arms as well as the number of entries in open arms in relation to the total of arm entries are used as experimental indices of anxiety.

rats = assay: Forced Swim Test (FST) in rats; assay type: in vivo, rat; details: acute i.p. 10^-5 M, 30 min before test
Protocol: Male Sprague-Dawley rats (Janvier, France), weighing 250-300 g were also used for the FST. Rats experienced a pretest session followed 24 h later by a test session. For both the pretest and the test sessions, conducted under low illumination (15 W), the animals were placed in a plastic cylindrical tank (50 cm high by 20 cm in diameter) filled with 40 cm deep water at 24° C. The pretest was carried out for 15 minutes and the test for 5 minutes in the same tank. The total period of immobility was analyzed during the last 4 min.

Sequence: APLPRWSGPIGVSWGLR [spadin]
- rearing/step numbers ratio (mice [1]): had no effect
- inhibition at 1 µM (TREK-1 [2]): 36%
- reduction of conditioned suppression of motility (mice [3]; i.v., 10^-6 M): 84.4%
- effect in CMST (mice [3]; injection in kcnk2-/- mice): did not induce any change
- motility (squares crossed plus climbings) (mice [3]; shocked group, acute spadin): 78±7 counts
- time for cell-associated radioactivity to reach a plateau (TREK-1 [4]): ≤ 30 min
- number of pCREB-labelled neurons versus saline (CREB): two-fold increase
- time spent in the open arms (mice [5]): had no effect
- immobility time versus saline (rats): significantly reduced immobility time; also recorded: shorter time of immobility
